# Measurements taken from publication PMC10305039, “Triphenylphosphonium (TPP)-Conjugated Quinolone Analogs Displayed Significantly Enhanced Fungicidal Activity Superior to Its Parent Molecule” (Journal of Fungi, 2023).
# System: T1, cytochrome bc1 complex (complex III) of P. capsici
# T1 construct: gene cob; native complex III in freeze-thawed hyphal mitochondria isolated by differential centrifugation; not purified; with Cytochrome c1, heme protein, mitochondrial; Cytochrome b-c1 complex subunit Rieske, mitochondrial
# Experiment: complex III activity assay kit (Genmed GMS50009), hyphal mitochondria
# Type: biochemical, Phytophthora capsici
# Conditions: freeze-thawed mitochondria; Qi site proposed, not shown
smiles,measurement,value
Cc1cc(=O)c2ccccc2n1OC(=O)CCCCCCCCCC[P+](c1ccccc1)(c1ccccc1)c1ccccc1 [mitoQNO11],IC50,3.33 µM
